Test results reported in ChEMBL document CHEMBL1201862, “PubChem BioAssay data set” (2004).
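Exposure lasted 48 hours, with cells grown in 96-well plates and compounds tested at five concentrations. GI50 marks 50% less growth.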 Active and inactive are the calls of the source. Rule as the data show it: active = GI50 up to about 1.1 µM and inactive = higher.

Legend:
Experiment in all cases: DTP human tumour cell line panel, 48 h
A549 = tested on: A549
ACHN = tested on: ACHN
DU-145 = tested on: DU-145
HCC 2998 = tested on: HCC 2998
HCT-15 = tested on: HCT-15
HOP-92 = tested on: HOP-92
K562 = tested on: K562
KM12 = tested on: KM12
MCF7 = tested on: MCF7
NCI-H226 = tested on: NCI-H226
OVCAR-4 = tested on: OVCAR-4
OVCAR-8 = tested on: OVCAR-8
RPMI-8226 = tested on: RPMI-8226
SF-539 = tested on: SF-539
SK-MEL-5 = tested on: SK-MEL-5
SK-OV-3 = tested on: SK-OV-3
SN12C = tested on: SN12C
T47D = tested on: T47D
UACC-257 = tested on: UACC-257

| SMILES | GI50 (A549) | GI50 (ACHN) | GI50 (DU-145) | GI50 (HCC 2998) | GI50 (HCT-15) [µM] | GI50 (HOP-92) | GI50 (K562) | GI50 (KM12) | GI50 (MCF7) | GI50 (NCI-H226) | GI50 (OVCAR-4) | GI50 (OVCAR-8) | GI50 (RPMI-8226) | GI50 (SF-539) | GI50 (SK-MEL-5) | GI50 (SK-OV-3) | GI50 (SN12C) | GI50 (T47D) | GI50 (UACC-257) |
| --- | --- | --- | --- | --- | --- | --- | --- | --- | --- | --- | --- | --- | --- | --- | --- | --- | --- | --- | --- |
| CC(=O)C(=[N+]=[N-])C(=O)NCC#N | > 10 µM (inactive) | > 10 µM (inactive) | > 10 µM (inactive) | > 10 µM (inactive) | > 10 | > 10 µM (inactive) | > 10 µM (inactive) | 6.93 µM (inactive) | > 10 µM (inactive) | > 10 µM (inactive) | > 10 µM (inactive) | > 10 µM (inactive) | > 10 µM (inactive) | > 10 µM (inactive) | > 10 µM (inactive) | > 10 µM (inactive) | > 10 µM (inactive) | > 10 µM (inactive) | > 10 µM (inactive) |
| O=C(/C=C/c1ccco1)CC(=O)/C=C/c1ccco1 | 14.4 µM (inactive) | 14.8 µM (inactive) | > 10 µM (inactive) | 12.8 µM (inactive) | 12.5 | 28.8 µM (inactive) | 9.89 µM (inactive) | 28.8 µM (inactive) | 8.32 µM (inactive) | > 10 µM (inactive) | 15.5 µM (inactive) | 17.7 µM (inactive) | 8.38 µM (inactive) | 13.9 µM (inactive) | 12.3 µM (inactive) | > 10 µM (inactive) | 10.1 µM (inactive) | 8.67 µM (inactive) | 37.8 µM (inactive) |
| O=c1c2nn3c(=O)n(-c4ccccc4)c(=O)c3nn2c(=O)n1-c1ccccc1 | > 100 µM (inactive) | > 100 µM (inactive) | > 100 µM (inactive) | > 100 µM (inactive) | > 100 | > 100 µM (inactive) | > 100 µM (inactive) | > 100 µM (inactive) | > 100 µM (inactive) | > 100 µM (inactive) | > 100 µM (inactive) | > 100 µM (inactive) | > 100 µM (inactive) | > 100 µM (inactive) | > 100 µM (inactive) | > 100 µM (inactive) | > 100 µM (inactive) | > 100 µM (inactive) | > 100 µM (inactive) |
| C=C1C(=O)O[C@H]2C1C[C@@H](O)/C(C)=C/CC[C@@]1(C)O[C@H]21 (some centres undefined) | > 55.1 µM (inactive) | 9.27 µM (inactive) | 20.7 µM (inactive) | 33.1 µM (inactive) | 12.1 | 8.89 µM (inactive) | 6.37 µM (inactive) | > 100 µM (inactive) | 8.57 µM (inactive) | > 54.3 µM (inactive) | 11.4 µM (inactive) | 15.2 µM (inactive) | 4.76 µM (inactive) | 19.9 µM (inactive) | 16.1 µM (inactive) | 49.7 µM (inactive) | 29.2 µM (inactive) | 9.12 µM (inactive) | 13.1 µM (inactive) |
| COc1ccc(/C(Br)=C2\OC(=O)c3ccccc32)cc1 | > 10 µM (inactive) | > 10 µM (inactive) | > 10 µM (inactive) | > 10 µM (inactive) | > 10 | > 10 µM (inactive) | > 10 µM (inactive) | > 10 µM (inactive) | > 10 µM (inactive) | > 10 µM (inactive) | > 10 µM (inactive) | > 10 µM (inactive) | > 10 µM (inactive) | > 10 µM (inactive) | > 10 µM (inactive) | > 10 µM (inactive) | > 10 µM (inactive) | > 10 µM (inactive) | > 10 µM (inactive) |
| CC(C)(C)OC(=O)N1C(C2=COc3ccccc3O2)=COc2ccccc21 | 32.7 µM (inactive) | 24.7 µM (inactive) | 28 µM (inactive) | 16.2 µM (inactive) | 31.2 | 19.6 µM (inactive) | 21.5 µM (inactive) | 29.9 µM (inactive) | 24.2 µM (inactive) | 23.8 µM (inactive) | 36.8 µM (inactive) | 28.3 µM (inactive) | 13.9 µM (inactive) | 19.3 µM (inactive) | 19.1 µM (inactive) | 29 µM (inactive) | 26.6 µM (inactive) | 11.5 µM (inactive) | 23.9 µM (inactive) |
| O=C(N/N=C\c1ccc([N+](=O)[O-])cc1)Nc1ccc2ccccc2c1 | 43.8 µM (inactive) | 51.5 µM (inactive) | 71.3 µM (inactive) | 25.4 µM (inactive) | 38.6 | 28.2 µM (inactive) | 73.6 µM (inactive) | 23.3 µM (inactive) | 32.5 µM (inactive) | 32.6 µM (inactive) | 21.5 µM (inactive) | 29.8 µM (inactive) | 52.8 µM (inactive) | 20.7 µM (inactive) | 77.3 µM (inactive) | 31.4 µM (inactive) | 45.5 µM (inactive) | 56.1 µM (inactive) | 44.3 µM (inactive) |
| CC(C)c1[nH]nc(C(N)=O)c1/N=N/N(C)C | 23.7 µM (inactive) | 65 µM (inactive) | 97.9 µM (inactive) | > 100 µM (inactive) | > 100 | 47.4 µM (inactive) | 79.8 µM (inactive) | 61.1 µM (inactive) | 28.4 µM (inactive) | 24.1 µM (inactive) | > 100 µM (inactive) | > 100 µM (inactive) | 60.7 µM (inactive) | 69.2 µM (inactive) | 88.1 µM (inactive) | 52.5 µM (inactive) | 75.3 µM (inactive) | 79.6 µM (inactive) | > 100 µM (inactive) |
| CC(=O)c1ccc2c(c1)C(=O)c1sc(C(C)=O)cc1C2=O | 2.59 µM (inactive) | 0.736 µM (active) | 1.01 µM (active) | 3.17 µM (inactive) | 0.918 | 1.42 µM (inactive) | 1.7 µM (inactive) | 1.01 µM (active) | 1.37 µM (inactive) | 1.04 µM (active) | 1.73 µM (inactive) | 0.695 µM (active) | 1.74 µM (inactive) | 0.804 µM (active) | 0.389 µM (active) | 6.98 µM (inactive) | 0.578 µM (active) | 1.32 µM (inactive) | 0.859 µM (active) |
| Cc1ccc2c(O)cc(-c3ccsc3)nc2n1 | 5.24 µM (inactive) | 6.98 µM (inactive) | 9.79 µM (inactive) | 5.9 µM (inactive) | 1.68 | > 24.6 µM (inactive) | 2.9 µM (inactive) | 4.33 µM (inactive) | 3.08 µM (inactive) | 4.13 µM (inactive) | > 29.9 µM (inactive) | 4.06 µM (inactive) | 2.2 µM (inactive) | 5.93 µM (inactive) | 2.71 µM (inactive) | 10 µM (inactive) | 5.83 µM (inactive) | 5.01 µM (inactive) | 16.5 µM (inactive) |
| COc1cc2oc3c(c(=O)c2c(O)c1/C=C/C(C)C)C(C=C(C)C)Oc1cc(O)ccc1-3 (centres undefined) | 15 µM (inactive) | 15.4 µM (inactive) | 16.3 µM (inactive) | 12.1 µM (inactive) | 15.8 | 15.6 µM (inactive) | 7.6 µM (inactive) | 17.2 µM (inactive) | 14.4 µM (inactive) | 17.9 µM (inactive) | 16.6 µM (inactive) | 16.2 µM (inactive) | 14.7 µM (inactive) | 17.5 µM (inactive) | 18.5 µM (inactive) | 16.6 µM (inactive) | 16.1 µM (inactive) | 16.4 µM (inactive) | 18.2 µM (inactive) |
